BindingDB's records for doi:10.7270/Q2P26WT9 (The Scripps Research Institute Molecular Screening Center, 2014)

These compounds were tested against T1, RNA-editing ligase 1, mitochondrial (Trypanosoma brucei brucei, UniProt P86926) (assay: TbREL1 ligase inhibitors, dose response, biochemical, fluorescence, Trypanosoma brucei (AID 1117295)).
T1 sequence (P86926 whole entry): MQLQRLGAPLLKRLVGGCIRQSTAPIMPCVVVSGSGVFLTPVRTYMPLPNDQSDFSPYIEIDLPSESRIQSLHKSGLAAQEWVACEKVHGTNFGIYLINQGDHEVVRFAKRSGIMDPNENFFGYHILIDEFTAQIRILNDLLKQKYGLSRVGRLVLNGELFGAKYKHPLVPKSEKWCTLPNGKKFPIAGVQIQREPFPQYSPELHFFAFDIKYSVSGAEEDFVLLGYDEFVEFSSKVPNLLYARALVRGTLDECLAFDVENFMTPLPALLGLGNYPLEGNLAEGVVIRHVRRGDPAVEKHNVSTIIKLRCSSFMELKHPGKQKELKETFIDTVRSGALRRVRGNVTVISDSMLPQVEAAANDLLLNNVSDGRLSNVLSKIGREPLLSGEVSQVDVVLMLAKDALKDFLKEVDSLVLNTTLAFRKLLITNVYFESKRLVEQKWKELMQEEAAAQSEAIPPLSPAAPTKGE

Structure (SMILES) | IC50 [µM]
NC(=NNC=c1ccc(=C2C=CC(=O)C(C(=O)O)=C2)o1)N[N+](=O)[O-] [5-(5-{2-[amino(nitroimino)methyl]carbonohydrazonoyl}-2-furyl)-2-hydroxybenzoic acid] | 21.2
Oc1ccccc1CN=Nc1cc(N2CCCC2)nc(N2CCCC2)n1 [(6E)-6-[[[2,6-bis(1-pyrrolidinyl)-4-pyrimidinyl]hydrazo]methylidene]-1-cyclohexa-2,4-dienone] | > 96.6
COc1ccc(Cn2c(Nc3cc(Cl)ccc3OC)c3[nH]cccc-3c2=O)cc1 [7-[(5-chloranyl-2-methoxy-phenyl)amino]-6-[(4-methoxyphenyl)methyl]-7H-pyrrolo[3,4-b]pyridin-5-one] | 16.1
